Patent US8389523B2, “Substituted quinoxaline and an agrochemical composition thereof” (Kumiai Chemical Industry Co., Ltd., priority 2007, dated 2013)

Key:
Type in all cases: in vivo
Set-up in all cases: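 grade 0 to 5 of growth suppression where 5 is 90% or more and 0 below 10%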
[1] = system: Echinochloa crus-galli (L.) P. Beauv. var. crus-galli; test: Herbicidal effects in upland field foliar treatment (Test Example 3); settings: 1000 g active ingredient per hectare, 14th day after treatment, criteria of Table 138
Method in brief: (§1)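 Herbicidal activity is rated visually on a fixed scale 14 days after foliar application. Plants raised from seed in upland field soil for two weeks under glass receive a water dilution of a wettable powder at 1000 g a.i. per hectare in 1000 L/ha.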

[2] = system: Abutilon theophrasti medicus; test: as above; settings: 1000 g active ingredient per hectare, 14th day after treatment, criteria of Table 138
Method in brief: as §1

Amaranthus viridis L. [3] = test: as above; settings: 1000 g active ingredient per hectare, 14th day after treatment, criteria of Table 138
Method in brief: as §1

[4] = system: Echinochloa oryzicola Vasing; test: Herbicidal effects in paddy field soil treatment (Test Example 1); settings: paddy field soil treatment; 1000 g of the active ingredient per hectare; wettable powder added dropwise on water surface; 21st day after treatment
Method in brief: (§2)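 Scoring of herbicidal effect took place 21 days after treatment, using a rating scale, on plants grown in a greenhouse. The test compound, formulated as a wettable powder and diluted with water, had been applied dropwise to the flood water at 1000 g active ingredient per hectare, one day after sowing into puddled paddy soil held under 3 cm of water.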

[5] = system: Monochoria vaginalis (Burm. f.) Presl var. plantaginea (Roxb.) Solms-Laub.; test: as above; settings: paddy field soil treatment; 1000 g of the active ingredient per hectare; wettable powder added dropwise on water surface; 21st day after treatment
Method in brief: as §2

[6] = system: Scirpus juncoides Roxb. var. ohwianus. T. Koyama; test: as above; settings: paddy field soil treatment; 1000 g of the active ingredient per hectare; wettable powder added dropwise on water surface; 21st day after treatment
Method in brief: as §2

[7] = system: Abutilon theophrasti medicus; test: Herbicidal effects in upland field soil treatment (Test Example 2); settings: 1000 g active ingredient per hectare, 21st day after treatment, criteria of Table 138
Method in brief: (§3)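 Herbicidal effect was rated visually against set criteria on the 21st day after a pre-emergence soil-surface spray of diluted wettable powder delivering 1000 g active ingredient per hectare (1000 L/ha). Seeds had been sown and covered in upland field soil; plants grew in a greenhouse.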

Amaranthus viridis L. [8] = test: as above; settings: 1000 g active ingredient per hectare, 21st day after treatment, criteria of Table 138
Method in brief: as §3

| SMILES | herbicidal effect (index) on Echinochloa crus-galli (L.) P. Beauv. var. crus-galli [1] | herbicidal effect (index) on Abutilon theophrasti medicus [2] | herbicidal effect (index) on Amaranthus viridis L. (Amaranthus viridis L. [3]) | Herbicidal effects index, Echinochloa oryzicola Vasing [4] | Herbicidal effects index, Monochoria vaginalis (Burm. f.) Presl var. plantaginea (Roxb.) Solms-Laub. [5] | Herbicidal effects index, Scirpus juncoides Roxb. var. ohwianus. T. Koyama [6] | herbicidal effect (index) on Abutilon theophrasti medicus [7] | herbicidal effect (index) on Amaranthus viridis L. (Amaranthus viridis L. [8]) |
| --- | --- | --- | --- | --- | --- | --- | --- | --- |
| CCS(=O)(=O)Cn1c(=O)c(C(=O)C2=C(O)CCCC2=O)nc2ccccc21 [Compound I-82] | 4 | 5 | 5 | 5 | 5 | 5 | 5 | 5 |
| COCCn1c(=O)c(C(=O)C2=C(O)CCCC2=O)nc2ccccc21 [Compound I-88] | 5 | 5 | 5 | 5 | 5 | 5 | 5 | 5 |
| COCC(C)n1c(=O)c(C(=O)C2=C(O)CCCC2=O)nc2ccccc21 (stereo not drawn) [Compound I-90] | 5 | 5 | 5 | 5 | 5 | 5 | 5 | 5 |
| COCCCn1c(=O)c(C(=O)C2=C(O)CCCC2=O)nc2ccccc21 [Compound I-93] | 5 | 5 | 5 | 5 | 5 | 5 | 4 | 5 |
| CC(=O)Cn1c(=O)c(C(=O)C2=C(O)CCCC2=O)nc2ccccc21 [Compound I-94] | 5 | 5 | 5 | 5 | 5 | 5 | 5 | 4 |
| CC(C)(C)OC(=O)Cn1c(=O)c(C(=O)C2=C(O)CCCC2=O)nc2ccccc21 [Compound I-99] | 5 | 5 | 5 | 5 | 5 | 5 | 5 | 5 |
| N#CCn1c(=O)c(C(=O)C2=C(O)CCCC2=O)nc2ccccc21 [Compound I-102] | 5 | 5 | 5 | 5 | 4 | 5 | 5 | 5 |
| N#CCCn1c(=O)c(C(=O)C2=C(O)CCCC2=O)nc2ccccc21 [Compound I-103] | 5 | 5 | 5 | 5 | 5 | 5 | 5 | 5 |
| O=C1CCCC(O)=C1C(=O)c1nc2ccccc2n(Cc2ccccc2)c1=O [Compound I-107] | 4 | 5 | 5 | 4 | 5 | 5 | 5 | 5 |
| O=C1CCCC(O)=C1C(=O)c1nc2ccccc2n(CC(F)(F)F)c1=O [I-40] | 5 | 5 | 5 | 5 | 5 | 5 | 5 | 5 |
| COCn1c(=O)c(C(=O)C2=C(O)CCCC2=O)nc2ccccc21 [I-49] | 4 | 5 | 5 | 5 | 5 | 5 | 5 | 5 |
| CCOCn1c(=O)c(C(=O)C2=C(O)CCCC2=O)nc2ccccc21 [I-50] | 4 | 5 | 5 | 5 | 5 | 5 | 5 | 5 |
| COCCOCn1c(=O)c(C(=O)C2=C(O)CCCC2=O)nc2ccccc21 [I-58] | 5 | 5 | 5 | 5 | 5 | 5 | 5 | 5 |
| O=C1CCCC(O)=C1C(=O)c1nc2ccccc2n(COCC(F)(F)F)c1=O [I-59] | 5 | 5 | 5 | 5 | 5 | 5 | 5 | 5 |
| O=C(C1=C(O)C2CCC(C2)C1=O)c1nc2ccccc2n(COCC(F)(F)F)c1=O (stereo not drawn) [I-62] | 5 | 5 | 5 | 5 | 5 | 5 | 5 | 5 |
| O=C1CCCC(O)=C1C(=O)c1nc2ccccc2n(COCC2CCCO2)c1=O (stereo not drawn) [I-65] | 4 | 5 | 5 | 4 | 5 | 5 | 5 | 5 |
| N#CCCOCn1c(=O)c(C(=O)C2=C(O)CCCC2=O)nc2ccccc21 [I-68] | 4 | 5 | 5 | 4 | 5 | 5 | 5 | 5 |
| CSCn1c(=O)c(C(=O)C2=C(O)CCCC2=O)nc2ccccc21 [I-70] | 5 | 5 | 5 | 5 | 5 | 5 | 5 | 5 |
